The values below come from patent publication US12268770B2, “Use of cell membrane-bound signaling factors” (AiVita Biomedical, Inc., priority 2017, dated 2025).

In the assay the test system is plucked human hair follicles. The assay can be described thus: ex vivo culture of plucked human hair. The note with it: 0.25 mM; 5 days of exposure; no other growth factors. Format: cell-based. The method, then:
Plucked human hair with evident presence of the bulb area were immersed immediately after collection in cell growth media. Some of the hair samples were exposed to with lipid-modified protein/MBCD complexes (loaded MBCD) from embryonic stem cell culture as described in Example 2 (referred to as active ingredient), or unloaded MBCD as control, at the same concentration of 0.25 mM of the cyclodextrin component. No other growth factors (e.g., EGF, KGF, etc) were used in the hair follicle cultures.

On to methyl-β-cyclodextrin [unloaded MBCD], for which the “status of follicles in culture” value was “underwent senescence and detached from the substrate”.
